Data reported in patent US6803374B2, “Compounds useful for treating hepatitis C virus” (priority 2001, dated 2004).

Each compound was assayed against T1, HCV NS5B RdRp genotype 1b (Hepatitis C virus genotype 1b, UniProt Q9WMX2) (assay: HCV NS5B RdRp enzyme assay). Settings: IC50, HCV RdRp genotype 1b enzyme, C-terminal 18 aa truncated; average of single point IC50 values.
T1 construct: The protein was expressed with an 18 amino acid C-terminal truncation to enhance the solubility; made in house; host or cells: E. coli BL21(DE3)
T1 sequence (Q9WMX2 2420-2992): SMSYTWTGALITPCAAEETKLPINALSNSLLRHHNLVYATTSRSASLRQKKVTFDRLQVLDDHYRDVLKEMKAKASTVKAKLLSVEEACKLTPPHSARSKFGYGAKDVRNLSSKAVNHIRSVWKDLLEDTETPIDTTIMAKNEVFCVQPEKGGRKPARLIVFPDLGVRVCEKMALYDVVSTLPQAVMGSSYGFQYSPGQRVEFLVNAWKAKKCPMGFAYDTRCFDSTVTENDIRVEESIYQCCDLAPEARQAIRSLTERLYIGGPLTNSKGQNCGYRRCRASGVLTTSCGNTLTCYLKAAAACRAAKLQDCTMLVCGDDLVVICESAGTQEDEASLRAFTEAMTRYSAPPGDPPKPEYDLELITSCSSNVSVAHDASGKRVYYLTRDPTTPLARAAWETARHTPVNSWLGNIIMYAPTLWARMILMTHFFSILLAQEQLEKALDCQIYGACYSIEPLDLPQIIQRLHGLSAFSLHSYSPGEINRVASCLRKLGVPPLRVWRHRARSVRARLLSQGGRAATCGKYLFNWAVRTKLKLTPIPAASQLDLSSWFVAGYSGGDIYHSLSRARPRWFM
Type: biochemical
Description: HCV NS5B RdRp cloning, expression and purification. The cDNA encoding the NS5B protein of HCV, genotype 1b, was cloned into the pET21a expression vector. The protein was expressed with an 18 amino acid C-terminal truncation to enhance the solubility. The E. coli competent cell line BL21(DE3) was used for expression of the protein. Cultures were grown at 37° C. for ˜4 hours until the cultures reached an optical density of 2.0 at 600 nm. The cultures were cooled to 20° C. and induced with 1 mM IPTG. Fresh ampicillin was added to a final concentration of 50 ug/ml and the cells were grown overnight at 20° C.
Cell pellets (3L) were lysed for purification to yield 15-24 mgs of purified NS5B. The lysis buffer consisted of 20 mM Tris-HCl, pH 7.4, 500 mM NaCl, 0.5% triton X-100, 1 mM DTT, 1 mM EDTA, 20% glycerol, 0.5 mg/ml lysozyme, 10 mM MgCl2, 15 ug/ml deoxyribonuclease I, and Complete TM protease inhibitor tablets (Roche). After addition of the lysis buffer, frozen cell pellets were resuspended using a tissue homogenizer. To reduce the viscosity of the sample, aliquots of the lysate were sonicated on ice using a microtip attached to a Branson sonicator. The sonicated lysate was centrifuged at 100,000×g for 1 hr at 4° C. and filtered through a 0.2 μm filter unit (Corning).
The protein was purified using three sequential chromatography steps: Heparin sepharose CL-6B, polyU sepharose 4B, and Hitrap SP sepharose (Pharmacia). The chromatography buffers were identical to the lysis buffer but contained no lysozyme, deoxyribonuclease I, MgCl2 or protease inhibitor and the NaCl concentration of the buffer was adjusted according to the requirements for charging the protein onto the column. Each column was eluted with a NaCl gradient which varied in length from 5-50 column volumes depending on the column type. After the final chromatography step, the resulting purity of the enzyme is >90% based on SDS-PAGE analysis. The enzyme was aliquoted and stored at −80° C.
HCV NS5B RdRp enzyme assay. HCV RdRp genotype 1b assays were run in assay buffer composed of 20 mM Tris-HCl, pH 7.5, 2.5 mM KCl, 5 mM MgCl2, 1 mM DTT, 1.6 U RNAse inhibitor (Promega N2515), in 96 well plates (Falcon 3918). All compounds were serially diluted in DMSO and diluted further in assay buffer such that the final concentration of DMSO in the assay was 2%. Compounds were serially diluted (3-fold each time) for a 7 point inhibition analysis. HCV RdRp genotype 1b enzyme was used at a final concentration of 28 nM. A polyA template was used at 28 nM, and the oligo-dT12-18 primer was used at 840 nM final concentration. Preannealed primer and template were obtained commercially (Amersham 27-787802). ^3H-UTP was used at 0.125 μCi (1 μM total UTP). Reaction was initiated by the addition of enzyme. Reactions were incubated at 30° C. for 45 min, and stopped by adding 30 ul of 20% ice cold TCA. Plates were chilled for 30 minutes and harvested onto Unifilter-96, GF/B plates (Packard, 6005177) using a Packard FilterMate Cell Harvester. The harvest plates were prewashed 3 times, 200 ul/well, with 100 mM NaPPi. Harvested filters were washed 30 times, 200 ul/well, with distilled water followed by ethanol. Filter plates were dried, and 30 ul/well microscint-20 was added. Plates were read on a Packard Top Count NXT.
The IC50 values for compounds were determined using […] different [I], combined with 7 nM enzyme, 800 ng of the template-primer polyC/oligoG12 (1:5 molar ratio), and 0.7 uM of ^3H GTP containing 1 uCi. The observed fractional activity (fa=vi/vo) was used in the equation IC50=[I]/(1/fa-1) to determine a single point IC50 value. Typically, the single point IC50 values derived from [I] that produced fractional activities in the range of 0.1 to 0.8 relative to the uninhibited control were averaged to calculate the IC50 value for each compound.

Structure (SMILES) | IC50 [nM]
NC(=O)CCNC(=O)c1ccc(-c2cccc(O)c2)c(COc2ccc(-c3nc4cc(-c5nnn[nH]5)ccc4n3C3CCCCC3)cc2)c1 [Example 55] | 200
CC(NC(=O)c1ccc(-c2ccc(F)c(Cl)c2)c(COc2ccc(-c3nc4cc(-c5nnn[nH]5)ccc4n3C3CCCCC3)cc2)c1)C(=O)O (centres unmarked) [Example 56] | 190
O=C(NC(Cc1ccc(O)cc1)C(=O)O)c1ccc(-c2ccc(F)c(Cl)c2)c(COc2ccc(-c3nc4cc(-c5nnn[nH]5)ccc4n3C3CCCCC3)cc2)c1 (centres unmarked) [Example 57] | 180
NC(=O)CCNC(=O)c1ccc(-c2ccc(F)c(Cl)c2)c(COc2ccc(-c3nc4cc(-c5nnn[nH]5)ccc4n3C3CCCCC3)cc2)c1 [Example 59] | 920
COc1ccc(-c2ccc(C(=O)NC(Cc3ccc(O)cc3)C(=O)O)cc2COc2ccc(-c3nc4cc(-c5nnn[nH]5)ccc4n3C3CCCCC3)cc2)cc1OC (centres unmarked) [Example 61] | 90
COc1ccc(-c2ccc(C(=O)NCCC(N)=O)cc2COc2ccc(-c3nc4cc(-c5nnn[nH]5)ccc4n3C3CCCCC3)cc2)cc1OC [Example 63] | 150
CN1CCN(C(=O)c2ccc(-c3cccc(O)c3)c(COc3ccc(-c4nc5cc(-c6nnn[nH]6)ccc5n4C4CCCCC4)cc3)c2)CC1 [Example 64] | 1200
O=C(c1ccc(-c2cccc(O)c2)c(COc2ccc(-c3nc4cc(-c5nnn[nH]5)ccc4n3C3CCCCC3)cc2)c1)N1CCOCC1 [Example 65] | 1700
O=C(c1ccc(-c2cccc(O)c2)c(COc2ccc(-c3nc4cc(-c5nnn[nH]5)ccc4n3C3CCCCC3)cc2)c1)N1CCCC1 [Example 66] | 1400
O=C(NCCCO)c1ccc(-c2cccc(O)c2)c(COc2ccc(-c3nc4cc(-c5nnn[nH]5)ccc4n3C3CCCCC3)cc2)c1 [Example 67] | 790
CNC(=O)c1ccc(-c2cccc(O)c2)c(COc2ccc(-c3nc4cc(-c5nnn[nH]5)ccc4n3C3CCCCC3)cc2)c1 [Example 68] | 540
O=C(c1ccc(-c2cccc(O)c2)c(COc2ccc(-c3nc4cc(-c5nnn[nH]5)ccc4n3C3CCCCC3)cc2)c1)N1CCC(O)CC1 [Example 69] | 660
O=C(c1ccc(-c2cccc(O)c2)c(COc2ccc(-c3nc4cc(-c5nnn[nH]5)ccc4n3C3CCCCC3)cc2)c1)N(CCO)CCO [Example 70] | 500
CC(NC(=O)c1ccc(-c2cccc(O)c2)c(COc2ccc(-c3nc4cc(-c5nnn[nH]5)ccc4n3C3CCCCC3)cc2)c1)C(=O)OC(C)(C)C (centres unmarked) [Example 71] | 520
CC(C)(C)OC(=O)CNC(=O)c1ccc(-c2cccc(O)c2)c(COc2ccc(-c3nc4cc(-c5nnn[nH]5)ccc4n3C3CCCCC3)cc2)c1 [Example 72] | 930
O=C(O)CNC(=O)c1ccc(-c2cccc(O)c2)c(COc2ccc(-c3nc4cc(-c5nnn[nH]5)ccc4n3C3CCCCC3)cc2)c1 [Example 74] | 150
O=C(c1ccc(-c2ccc(F)c(Cl)c2)c(COc2ccc(-c3nc4cc(-c5nnn[nH]5)ccc4n3C3CCCCC3)cc2)c1)N1CCOCC1 [Example 76] | 1400
O=C(c1ccc(-c2ccc(F)c(Cl)c2)c(COc2ccc(-c3nc4cc(-c5nnn[nH]5)ccc4n3C3CCCCC3)cc2)c1)N1CCCC1 [Example 77] | 1200
O=C(NCCCO)c1ccc(-c2ccc(F)c(Cl)c2)c(COc2ccc(-c3nc4cc(-c5nnn[nH]5)ccc4n3C3CCCCC3)cc2)c1 [Example 78] | 690
CNC(=O)c1ccc(-c2ccc(F)c(Cl)c2)c(COc2ccc(-c3nc4cc(-c5nnn[nH]5)ccc4n3C3CCCCC3)cc2)c1 [Example 79] | 550
O=C(c1ccc(-c2ccc(F)c(Cl)c2)c(COc2ccc(-c3nc4cc(-c5nnn[nH]5)ccc4n3C3CCCCC3)cc2)c1)N(CCO)CCO [Example 81] | 1100
CC(NC(=O)c1ccc(-c2ccc(F)c(Cl)c2)c(COc2ccc(-c3nc4cc(-c5nnn[nH]5)ccc4n3C3CCCCC3)cc2)c1)C(=O)OC(C)(C)C (centres unmarked) [Example 82] | 1300
CC(C)(C)OC(=O)C(Cc1ccc(O)cc1)NC(=O)c1ccc(-c2ccc(F)c(Cl)c2)c(COc2ccc(-c3nc4cc(-c5nnn[nH]5)ccc4n3C3CCCCC3)cc2)c1 (centres unmarked) [Example 83] | 560
